Source: US8580794B2 (AbbVie Inc., priority 2009, dated 2013)

These compounds were tested against GST-Bc1-2 (Homo sapiens, UniProt P10415) (assay: Time Resolved-Fluorescence Resonance Energy Transfer (TR-FRET) Bcl-2 binding assay with F-Bak peptide probe). Conditions: GST-Bcl-2 1 nM, F-Bak probe 100 nM, Tb-anti-GST 1 nM; '<' = below limit of detection; read-out: TR-FRET Bcl-2 Binding Ki.
Chain of GST-Bc1-2 (P10415 whole entry): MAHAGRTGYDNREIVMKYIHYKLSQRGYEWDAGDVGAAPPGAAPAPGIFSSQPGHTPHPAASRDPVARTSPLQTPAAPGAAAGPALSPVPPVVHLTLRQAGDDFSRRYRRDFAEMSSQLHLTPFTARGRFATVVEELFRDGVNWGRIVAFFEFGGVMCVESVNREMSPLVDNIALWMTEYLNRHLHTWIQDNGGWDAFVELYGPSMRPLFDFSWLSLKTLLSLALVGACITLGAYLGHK
Experimental: The samples are then mixed on a shaker for 1 minute and incubated for an additional 3 hours at room temperature. For each assay, the probe/antibody and protein/probe/antibody were included on each assay plate as negative and positive controls, respectively.
The samples were then mixed on a shaker for 1 minute and incubated for an additional 3 hours at room temperature. For each assay, the probe/antibody and protein/probe/antibody were included on each assay plate as negative and positive controls, respectively.

Point of comparison: CC1(C)CCC(CN2CCN(c3ccc(C(=O)NS(=O)(=O)c4cnc(O[C@@H]5CCN(C(CF)CF)C5)c(Cl)c4)c(Oc4cnc5[nH]ccc5c4)c3)CC2)=C(c2ccc(Cl)cc2)C1 [Example 274, N-[(5-chloro-6-{[(3R)-1-(1,3-difluoropropan-2-yl)pyrrolidin-3-yl]oxy}pyridin-3-yl)sulfonyl]-4-(4-{[2-(4-chlorophenyl)-4,4-dimethylcyclohex-1-en-1-yl]methyl}piperazin-1-yl)-2-(1H-pyrrolo[2,3-b]pyridin-5-yloxy)benzamide], Ki 40 pM. Against it:
- CC(C)N1CCC2(CCC(c3ccc(Cl)cc3)=C(CN3CCN(c4ccc(C(=O)NS(=O)(=O)c5ccc(NCC6CCOCC6)c(C(F)(F)F)c5)c(Oc5cnc6[nH]ccc6c5)c4)CC3)C2)CC1 [Example 273, 4-(4-{[9-(4-chlorophenyl)-3-isopropyl-3-azaspiro[5.5]undec-8-en-8-yl]methyl}piperazin-1-yl)-2-(1H-pyrrolo[2,3-b]pyridin-5-yloxy)-N-({4-[(tetrahydro-2H-pyran-4-ylmethyl)amino]-3-(trifluoromethyl)phenyl}sulfonyl)benzamide] — within 1.5-fold, 35 pM
- CC1(C)CCC(CN2CCN(c3ccc(C(=O)NS(=O)(=O)c4ccc(OCCOC5CCOC5)c([N+](=O)[O-])c4)c(Oc4cnc5[nH]ccc5c4)c3)CC2)=C(c2ccc(Cl)cc2)C1 (stereo not shown) [Example 275, 4-(4-{[2-(4-chlorophenyl)-4,4-dimethylcyclohex-1-en-1-yl]methyl}piperazin-1-yl)-N-({3-nitro-4-[2-(tetrahydrofuran-3-yloxy)ethoxy]phenyl}sulfonyl)-2-(1H-pyrrolo[2,3-b]pyridin-5-yloxy)benzamide] — lower, < 10 pM
- CC1(C)CCC(CN2CCN(c3ccc(C(=O)NS(=O)(=O)c4ccc(NC[C@H]5CC[C@H](C#N)CC5)c([N+](=O)[O-])c4)c(Oc4cnc5[nH]ccc5c4)c3)CC2)=C(c2ccc(Cl)cc2)C1 [Example 276, 4-(4-{[2-(4-chlorophenyl)-4,4-dimethylcyclohex-1-en-1-yl]methyl}piperazin-1-yl)-N-[(4-{[(trans-4-cyanocyclohexyl)methyl]amino}-3-nitrophenyl)sulfonyl]-2-(1H-pyrrolo[2,3-b]pyridin-5-yloxy)benzamide] — lower, < 10 pM
- CC1(C)CCC(CN2CCN(c3ccc(C(=O)NS(=O)(=O)c4cnc(OCC5(F)CCN(C6COC6)CC5)c(Cl)c4)c(Oc4cnc5[nH]ccc5c4)c3)CC2)=C(c2ccc(Cl)cc2)C1 [Example 277, N-[(5-chloro-6-{[4-fluoro-1-(oxetan-3-yl)piperidin-4-yl]methoxy}pyridin-3-yl)sulfonyl]-4-(4-{[2-(4-chlorophenyl)-4,4-dimethylcyclohex-1-en-1-yl]methyl}piperazin-1-yl)-2-(1H-pyrrolo[2,3-b]pyridin-5-yloxy)benzamide] — lower, < 10 pM
- CC1(C)CCC(CN2CCN(c3ccc(C(=O)NS(=O)(=O)c4cnc(OCCC5CCOCC5)c(C#N)c4)c(Oc4cnc5[nH]ccc5c4)c3)CC2)=C(c2ccc(Cl)cc2)C1 [Example 278, 4-(4-{[2-(4-chlorophenyl)-4,4-dimethylcyclohex-1-en-1-yl]methyl}piperazin-1-yl)-N-({5-cyano-6-[2-(tetrahydro-2H-pyran-4-yl)ethoxy]pyridin-3-yl}sulfonyl)-2-(1H-pyrrolo[2,3-b]pyridin-5-yloxy)benzamide] — 6.3-fold higher, 252 pM
- CC1(C)CCC(CN2CCN(c3ccc(C(=O)NS(=O)(=O)c4ccc(OCc5ccoc5)c([N+](=O)[O-])c4)c(Oc4cnc5[nH]ccc5c4)c3)CC2)=C(c2ccc(Cl)cc2)C1 [Example 279, 4-(4-{[2-(4-chlorophenyl)-4,4-dimethylcyclohex-1-en-1-yl]methyl}piperazin-1-yl)-N-{[4-(3-furylmethoxy)-3-nitrophenyl]sulfonyl}-2-(1H-pyrrolo[2,3-b]pyridin-5-yloxy)benzamide] — within 1.5-fold, 35 pM
- CC1(C)CCC(CN2CCN(c3ccc(C(=O)NS(=O)(=O)c4cnc(OC[C@@H]5CCN(C(CF)CF)C5)c(Cl)c4)c(Oc4cnc5[nH]ccc5c4)c3)CC2)=C(c2ccc(Cl)cc2)C1 [Example 280, N-[(5-chloro-6-{[(3R)-1-(1,3-difluoropropan-2-yl)pyrrolidin-3-yl]methoxy}pyridin-3-yl)sulfonyl]-4-(4-{[2-(4-chlorophenyl)-4,4-dimethylcyclohex-1-en-1-yl]methyl}piperazin-1-yl)-2-(1H-pyrrolo[2,3-b]pyridin-5-yloxy)benzamide] — 1.8-fold higher, 71 pM
- CC1(C)CCC(CN2CCN(c3ccc(C(=O)NS(=O)(=O)c4cnc(OC[C@@H]5CCN(CC(F)F)C5)c(Cl)c4)c(Oc4cnc5[nH]ccc5c4)c3)CC2)=C(c2ccc(Cl)cc2)C1 [Example 281, N-[(5-chloro-6-{[(3R)-1-(2,2-difluoroethyl)pyrrolidin-3-yl]methoxy}pyridin-3-yl)sulfonyl]-4-(4-{[2-(4-chlorophenyl)-4,4-dimethylcyclohex-1-en-1-yl]methyl}piperazin-1-yl)-2-(1H-pyrrolo[2,3-b]pyridin-5-yloxy)benzamide] — 3.6-fold higher, 145 pM
- CC1(C)CCC(CN2CCN(c3ccc(C(=O)NS(=O)(=O)c4cnc(OCC5(F)CCN(C(CF)CF)CC5)c(Cl)c4)c(Oc4cnc5[nH]ccc5c4)c3)CC2)=C(c2ccc(Cl)cc2)C1 [Example 282, N-[(5-chloro-6-{[1-(1,3-difluoropropan-2-yl)-4-fluoropiperidin-4-yl]methoxy}pyridin-3-yl)sulfonyl]-4-(4-{[2-(4-chlorophenyl)-4,4-dimethylcyclohex-1-en-1-yl]methyl}piperazin-1-yl)-2-(1H-pyrrolo[2,3-b]pyridin-5-yloxy)benzamide] — lower, < 10 pM
- CN1CCC(F)(COc2ccc(S(=O)(=O)NC(=O)c3ccc(N4CCN(CC5=C(c6ccc(Cl)cc6)CC(C)(C)CC5)CC4)cc3Oc3cnc4[nH]ccc4c3)cc2Cl)CC1 [Example 283, N-({3-chloro-4-[(4-fluoro-1-methylpiperidin-4-yl)methoxy]phenyl}sulfonyl)-4-(4-{[2-(4-chlorophenyl)-4,4-dimethylcyclohex-1-en-1-yl]methyl}piperazin-1-yl)-2-(1H-pyrrolo[2,3-b]pyridin-5-yloxy)benzamide] — lower, < 10 pM
- CC1(C)CCC(CN2CCN(c3ccc(C(=O)NS(=O)(=O)c4ccc(OCC5CCOCC5)c(C#N)c4)c(Oc4cnc5[nH]ccc5c4)c3)CC2)=C(c2ccc(Cl)cc2)C1 [Example 284, 4-(4-{[2-(4-chlorophenyl)-4,4-dimethylcyclohex-1-en-1-yl]methyl}piperazin-1-yl)-N-{[3-cyano-4-(tetrahydro-2H-pyran-4-ylmethoxy)phenyl]sulfonyl}-2-(1H-pyrrolo[2,3-b]pyridin-5-yloxy)benzamide] — 1.7-fold lower, 24 pM
- CC1(C)CCC(CN2CCN(c3ccc(C(=O)NS(=O)(=O)c4cnc(OCC5(F)CCN(CC(F)F)CC5)c(Cl)c4)c(Oc4cnc5[nH]ccc5c4)c3)CC2)=C(c2ccc(Cl)cc2)C1 [Example 285, N-[(5-chloro-6-{[1-(2,2-difluoroethyl)-4-fluoropiperidin-4-yl]methoxy}pyridin-3-yl)sulfonyl]-4-(4-{[2-(4-chlorophenyl)-4,4-dimethylcyclohex-1-en-1-yl]methyl}piperazin-1-yl)-2-(1H-pyrrolo[2,3-b]pyridin-5-yloxy)benzamide] — lower, < 10 pM
